Experimental findings from patent US20080286219A1, “Hydroquinone derivative skin brightening compounds” (priority 2007, published 2008) are described below.

What is called EC50 is the concentration that produces a half-maximal response.

The first test addresses Mushroom Tyrosinase (Sigma T3824). Description: General in vitro tyrosinase inhibition assay (L-Dopa oxidation to dopachrome). As to conditions: 0.5 mM L-Dopa, pH 7.0, 30° C., 475 nm, 18 Units Mushroom Tyrosinase. The class given is biochemical.
Molecule `CC(=O)N[C@@H](CSc1cc(O)ccc1O)C(=O)O` [Compound X29876-018] had an EC50 of 4850 µM.
In the case of `NC(CCC(=O)NC(CSc1cc(O)ccc1O)C(=O)NCC(=O)O)C(=O)O` (stereo not shown) [Compound X29876-019], the EC50 turned out to be 10400 µM.
The same measure, in the same setting: with `N[C@@H](CSc1cc(O)ccc1O)C(=O)O` [Compound X29876-063] the figure was 20 µM; with `CCOC(=O)[C@@H](N)CSc1cc(O)ccc1O` [Compound X29876-064], 250 µM.
In turn, `CC(C)(Sc1cc(O)ccc1O)C(N)C(=O)O` (stereo not shown) [Compound X29876-144] had an EC50 of 70 µM.
Still for that read-out and setting: with `COC(=O)[C@@H](N)CSc1cc(O)ccc1O` [Compound X29876-145] the figure was 130 µM.
Same read-out and setting: with `N[C@H](CSc1cc(O)ccc1O)C(=O)O` [Compound X29876-147] the figure was 30 µM.
`C[C@H](CSc1cc(O)ccc1O)C(=O)N1CCC[C@H]1C(=O)O` [Compound X29876-155] gave a concentration for a half-maximal effect (EC50) of 12200 µM.
Same read-out and setting: with `Cc1nc(Sc2cc(O)ccc2O)sc1CC(=O)O` [Compound X29876-160] the figure was 520 µM; with `OCCCCCCSc1cc(O)ccc1O` [Compound X29876-162], 10 µM.
On the same count and under the same terms, then `O=C(O)CSc1cc(O)ccc1O` [Compound X29876-163], with 9410 µM; and `CCOC(=O)CSc1cc(O)ccc1O` [Compound X29876-169], with 3280 µM; and `CC(=O)C(C)Sc1cc(O)ccc1O` (stereo not shown) [Compound X29876-181], with 310 µM.
On the same count and under the same terms, then `Oc1ccc(O)c(SCc2cccs2)c1` [Compound X29876-198], with 200 µM.
Molecule `Oc1ccc(O)cc1` [Hydroquinone, hydroquinone] yielded a 50% effective concentration (EC50) of 620 µM.

The same test, now with this note: compared to HQ.
On to `N[C@@H](CSc1cc(O)ccc1O)C(=O)O` [Compound X29876-063], for which the “fold more potent than HQ” value was “about 25 fold”.
